In patent publication US7973047B2, “Beta-Secretase modulators and methods of use” (Amgen Inc., priority 2010, dated 2011):
Where two headings read alike, the source gives them in different places.

Columns and labels:
BACE = BACE (Homo sapiens, UniProt P56817); test: In vitro enzymatic BACE FRET (fluorescence resonance energy transfer) assay; type: biochemical; conditions: BACE enzyme 0.2 nM, FRET substrate 50 nM, acetate buffer pH 4.2
Procedure: In Vitro Enzymatic BACE FRET (Fluorescence Resonance Energy Transfer) Assay
Assay buffer is 0.05 M acetate, pH 4.2, 10% DMSO final, 100 uM genapol (which is a nonionic detergent, below it's Critical Micelle Concentration). Enzyme (0.2 nM) is pre-incubated for one hour with inhibitors added in 1 uL of DMSO. Then the assay is started by the addition of FRET substrate (50 nM) and incubated for one hour. The FRET assay is terminated with by addition of Tris buffer, which raises the pH to neutrality, and the fluorescence is determined. The FRET substrate is a peptide with commercially available fluorophore and quencher, on opposite sides of the BACE cleavage site. Proteolytic cleavage of the FRET substrate releases quenching of fluorescence (excitation 488 nm and emission […]).

[1] = test system: Aβ40 in conditioned medium of cells stably expressing Amyloid Precursor Protein (APP); test: BACE cell-based assay: Aβ40 in conditioned medium by sandwich ELISA
Outline: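 Aβ40 in conditioned medium was read by time-resolved fluorescence sandwich ELISA (capture pAb40, detection biotinylated 6E10, 4° C incubations). Compounds were applied for 24 h to cells stably expressing APP, at 10 doses from 100 or 10 μM top, 0.1% DMSO. IC50 derived from percent of control.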

[2] = cell based assay data of Table 4, unit inferred, read-out: Cell Assay
[3] = cell based assay data, Table 4, unit inferred, read-out: Cell Assay

Chain of BACE (P56817 46-501, species assumed): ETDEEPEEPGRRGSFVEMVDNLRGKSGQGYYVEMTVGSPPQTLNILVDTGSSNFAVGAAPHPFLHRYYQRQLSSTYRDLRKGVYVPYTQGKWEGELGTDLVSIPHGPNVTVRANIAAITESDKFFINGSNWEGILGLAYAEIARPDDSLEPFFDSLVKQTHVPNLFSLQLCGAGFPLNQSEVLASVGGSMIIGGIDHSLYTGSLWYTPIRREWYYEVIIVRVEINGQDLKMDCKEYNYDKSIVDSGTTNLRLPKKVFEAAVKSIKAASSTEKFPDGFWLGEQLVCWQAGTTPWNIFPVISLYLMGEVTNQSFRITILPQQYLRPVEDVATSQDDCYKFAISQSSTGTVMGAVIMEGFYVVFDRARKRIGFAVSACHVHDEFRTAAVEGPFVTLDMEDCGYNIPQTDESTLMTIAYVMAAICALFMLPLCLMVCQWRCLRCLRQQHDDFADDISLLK

Row | IC50 [1, 2] [nM] | IC50 [1, 3] [nM] | Compound | also measured
1 | – | – | CC(=O)N[C@@H](Cc1cccc(Cl)c1)[C@H](O)CN[C@H]1CC(C)(C)Oc2ccc(Br)cc21 [Example 182] | IC50 (BACE): ≤ 5000 nM
2 | – | – | COCC(=O)N[C@@H](Cc1cccc(Cl)c1)[C@H](O)CN[C@H]1CC(C)(C)Oc2ccc(Br)cc21 [Example 180] | IC50 (BACE): ≤ 5000 nM
3 | – | – | CC(=O)N[C@@H](Cc1ccccc1)[C@H](O)CN[C@H]1CC2(CCC2)Oc2ccc(N3CCCC3)cc21 [Example 264] | IC50 (BACE): ≤ 5000 nM
4 | 23.4 | – | CC(=O)N[C@@H](Cc1cccc(F)c1)[C@H](O)CN[C@H]1CC2(CCC2)Oc2c1cc(CC(C)(C)C)[nH]c2=O [compound 594] | –
5 | ≥ 10000 | – | CC(=O)N[C@@H](Cc1ccc(F)cc1)[C@H](O)CN[C@H]1C[C@@]2(CC[C@H]2C)Oc2ncc(CC(C)(C)C)cc21 [compound 621] | –
6 | 28.5 | – | CC(=O)N[C@@H](Cc1ccc(F)c(C)c1)[C@H](O)CN[C@H]1CC2(CCC2)Oc2ncc(CC(C)(C)F)cc21 [compound 578] | –
7 | 120 | – | COCC(=O)N[C@@H](Cc1cccc(C#N)c1)[C@H](O)CN[C@H]1CC(C)(C)Oc2ccc(Br)cc21 [compound 527] | –
8 | – | 17.7 | CC(=O)Nc1ccc2c(c1)[C@@H](NC[C@@H](O)[C@H](Cc1cc(F)cc(F)c1)NC(C)=O)CC1(CCC1)O2 [compound 789] | –
9 | 3.11 | – | CC(=O)N[C@@H](Cc1ccc(F)c(Cl)c1)[C@H](O)CN[C@H]1CC2(CCC2)Oc2ncc(CC(C)(C)C)cc21 [compound 706] | –
10 | – | 137 | CC(=O)N[C@@H](Cc1ccc(F)c(F)c1F)[C@H](O)CN[C@H]1CC2(CCC2)Oc2ncc(CC(C)C)cc21 [compound 816] | –
11 | – | 26.2 | CC(=O)N[C@@H](Cc1ccc(Cl)c(F)c1)[C@H](O)CN[C@H]1CC2(CCC2)Oc2ncc(CC(C)C)cc21 [compound 857] | –
12 | 2.42 | – | CC(=O)N[C@@H](Cc1cccc(C#N)c1)[C@H](O)CN[C@H]1CC2(CCC2)Oc2ncc(CC(C)(C)F)cc21 [compound 524] | –
13 | 10.2 | – | CC(=O)N[C@@H](Cc1cccc(F)c1)[C@H](O)CN[C@H]1CC2(CCC2)Oc2nc(F)c(CC(C)(C)C)cc21 [compound 661] | –
14 | 11.7 | – | CC(=O)N[C@@H](Cc1cc(F)cc(F)c1)[C@H](O)CN[C@H]1CC2(CCC2)Nc2ccc(CC(C)(C)C)cc21 [compound 560, N-((1S,2R)-1-((3,5-difluorophenyl)methyl)-3-(((4′S)-6′-(2,2-dimethylpropyl)-3′,4′-dihydro-1′H-spiro[cyclobutane-1,2′-quinolin]-4′-yl)amino)-2-hydroxypropyl)acetamide] | –
15 | – | 34.5 | CC(=O)N[C@@H](Cc1ccc(Br)cc1)[C@H](O)CN[C@H]1CC2(CCC2)Oc2ncc(CC(C)(C)C)cc21 [compound 872] | –
16 | – | 166 | CC(=O)N[C@@H](Cc1ccc(F)cc1)[C@H](O)CN[C@H]1CC(C)(C)Oc2c1cc(CC(C)(C)C)nc2N(C)C [compound 762] | –
17 | – | 3240 | CC(=O)N[C@@H](Cc1ccccc1)[C@H](O)CN[C@H]1CC2(CCC2)Oc2ccc(-c3ccn(C)n3)cc21 [compound 783] | –
18 | – | 9.31 | CC(=O)N[C@@H](Cc1ccc(F)c(Br)c1)[C@H](O)CN[C@H]1CC2(CCC2)Oc2ncc(CC(C)(C)F)cc21 [compound 834] | –
19 | – | 5.49 | CC(=O)N[C@@H](Cc1ccc2c(c1)OCO2)[C@H](O)CN[C@H]1CC2(CCC2)Oc2ncc(CC(C)(C)C)cc21 [compound 839] | –
20 | – | 1.72 | CC(=O)N[C@@H](Cc1cc(F)cc(F)c1)[C@H](O)CN[C@H]1CC2(CCC2)Oc2ncc(CC(C)C)cc21 [compound 846] | –
21 | 10.5 | – | COCC(=O)N[C@@H](Cc1ccc(F)cc1)[C@H](O)CN[C@H]1CC2(CCC2)Oc2ncc(CC(C)(C)C)cc21 [compound 628] | –
22 | 1.56 | – | CC(=O)N[C@@H](Cc1cccc(F)c1)[C@H](O)CN[C@H]1CC2(CCC2)Oc2c1cc(CC(C)(C)C)nc2N [compound 605] | –
23 | 2090 | – | CC(=O)N[C@@H](Cc1ccc(F)cc1)[C@H](O)CN[C@H]1CC2(CCC2)Oc2c1cc(CC(C)(C)C)cc2N1CCOCC1 [compound 536] | –

Row | IC50 [1, 2] [nM] | IC50 [1, 3] [nM] | Compound | also measured
24 | – | ≥ 10000 | CC(=O)N[C@@H](Cn1cccn1)[C@H](O)CN[C@H]1CC2(CCC2)Oc2ncc(CC(C)(C)C)cc21 [compound 735] | –
25 | 922 | – | CCCc1scnc1C[C@H](NC(C)=O)[C@H](O)CN[C@H]1CC2(CCC2)Oc2ncc(CC(C)(C)C)cc21 [compound 637, N-((1S,2R)-3-(((4′S)-6′-(2,2-dimethylpropyl)-3′,4′-dihydrospiro[cyclobutane-1,2′-pyrano[2,3-b]pyridin]-4′-yl)amino)-2-hydroxy-1-((5-propyl-1,3-thiazol-4-yl)methyl)propyl)acetamide] | –
26 | – | 1940 | CC(=O)N[C@@H](Cc1ccc(F)cc1)[C@H](O)CN[C@H]1CC2(CCC2)Oc2cc(F)c(-n3cccn3)cc21 [compound 808] | –
27 | – | 33.8 | CC(=O)N[C@@H](Cc1cccc(F)c1F)[C@H](O)CN[C@H]1C[C@]2(C[C@H](C)C2)Oc2ncc(CC(C)(C)C)cc21 [compound 769, N-((1S,2R)-1-((2,3-difluorophenyl)methyl)-3-(((1s,3R,4′S)-6′-(2,2-dimethylpropyl)-3-methyl-3′,4′-dihydrospiro[cyclobutane-1,2′-pyrano[2,3-b]pyridin]-4′-yl)amino)-2-hydroxypropyl)acetamide] | –
28 | 2.36 | – | CC(=O)N[C@@H](Cc1ccc(F)c(F)c1)[C@H](O)CN[C@H]1CC2(CCC2)Oc2ncc(CC(C)(C)C)cc21 [compound 701] | –
29 | 34.8 | – | CC(=O)N[C@@H](Cc1ccc(F)cc1)[C@H](O)CN[C@H]1CC2(CCCC2)Oc2ncc(CC(C)(C)C)cc21 [compound 547] | –
30 | – | ≥ 10000 | CCc1ccc2c(c1)[C@@H](NC[C@@H](O)[C@H](COCc1ccccc1)NC(C)=O)CC1(CCC1)O2 [compound 733] | –
31 | – | 17.9 | CC(=O)N[C@@H](Cc1cc(F)c(F)c(Cl)c1)[C@H](O)CN[C@H]1CC2(CCC2)Oc2ncc(CC(C)(C)C)cc21 [compound 869] | –
32 | 20.2 | – | N-((1S,2R)-3-(((3S,4′S)-6′-(2,2-dimethylpropyl)-3′,4,4′,5-tetrahydrospiro[furan-3,2′-pyrano[2,3-b]pyridin]-4′-yl)amino)-1-((4-fluorophenyl)methyl)-2-hydroxypropyl)acetamide N-((1S,2R)-3-(((3R,4′S)-6′-(2,2-dimethylpropyl)-3′,4,4,5-tetrahydrospiro[furan-3,2′-pyrano[2,3-b]pyridin]-4′-yl)amino)-1-((4-fluorophenyl)methyl)-2-hydroxypropyl)acetamide [compound 658] | –
33 | – | 74.1 | CC(=O)N[C@@H](Cc1ccccc1)[C@H](O)CN[C@H]1CC2(CCC2)Oc2ncc(C(F)C(C)C(F)(F)F)cc21 (stereo partly drawn) [compound 862] | –
34 | – | 8.68 | CC(=O)N[C@@H](Cc1cccc(F)c1F)[C@H](O)CN[C@H]1CC2(CCC2)Oc2ncc(CC(C)C)cc21 [compound 850] | –
35 | – | 2970 | CC(=O)N[C@@H](Cc1cc(F)cc(F)c1)[C@H](O)CN[C@H]1CC2(CCC2)Oc2ccc(-c3cccs3)cc21 [compound 785] | –
36 | 308 | – | CC(C)(C)Cc1cnc2c(c1)[C@@H](NC[C@@H](O)[C@H](Cc1ccc(F)cc1)NC(=O)CC(F)(F)F)CC1(CCC1)O2 [compound 632] | –
37 | – | 106 | CC(=O)N[C@@H](Cc1ccc(F)c(F)c1)[C@H](O)CN[C@H]1CC2(CCC2)Oc2ncc(CC(F)(F)F)cc21 [compound 842] | –
38 | 9.28 | – | CC(=O)N[C@@H](Cc1cc(F)c(F)cc1F)[C@H](O)CN[C@H]1CC2(CCC2)Oc2ncc(CC(C)(C)C)cc21 [compound 685] | –
39 | 14.2 | – | CC(=O)N[C@@H](Cc1cscn1)[C@H](O)CN[C@H]1CC2(CCC2)Oc2ncc(CC(C)(C)C)cc21 [compound 634, N-((1S,2R)-3-(((4′S)-6′-(2,2-dimethylpropyl)-3′,4′-dihydrospiro[cyclobutane-1,2′-pyrano[2,3-b]pyridin]-4′-yl)amino)-2-hydroxy-1-(1,3-thiazol-4-ylmethyl)propyl)acetamide] | –
40 | – | 68.8 | CC(=O)N[C@@H](CC1CC1)[C@H](O)CN[C@H]1C[C@]2(C[C@H](C)C2)Oc2ncc(CC(C)(C)C)cc21 [compound 725, N-((1S,2R)-1-(cyclopropylmethyl)-3-(((1s,3R,4′S)-6′-(2,2-dimethylpropyl)-3-methyl-3′,4′-dihydrospiro[cyclobutane-1,2′-pyrano[2,3-b]pyridin]-4′-yl)amino)-2-hydroxypropyl)acetamide] | –
41 | 8.48 | – | CC(=O)N[C@@H](Cc1ccc(F)cc1)[C@H](O)CN[C@H]1CC2(CCC2)Oc2c1cc(CC(C)(C)C)nc2NC1CCOCC1 [compound 587] | –
42 | – | 78.4 | CC(=O)N[C@@H](Cc1ccc(Cl)cc1)[C@H](O)CN[C@H]1CC2(CCC2)Oc2ncc(CC(C)(C)F)cc21 [compound 828] | –
43 | 12.1 | – | CC(=O)N[C@@H](Cc1ccc(F)cc1)[C@H](O)CN[C@H]1CC2(CCC2)Oc2ncc([C@H](F)C(C)(C)C)cc21 [compound 675] | –
44 | – | – | CC(=O)N[C@@H](Cc1cc(F)cc(F)c1)[C@H](O)CN[C@H]1C[C@@]2(CCOC2)Oc2c(Br)cc(Cl)cc21 [Example 249] | IC50 ([1]; cells stably expressing APP, 24 h incubation with compound, Aβ40 in supernatant by sandwich ELISA, read-out: IC50 values in the cell-based assay (inhibition or reduction of Aβ40)): ≤ 5000 nM
45 | 26.8 | – | CC(=O)N[C@@H](Cc1cc(F)cc(F)c1)[C@H](O)CN[C@H]1CC2(CCC2)Oc2c1cc(CC(C)(C)C)nc2N(C)C [compound 598] | –
